Test results as given in patent publication US12624026B2, “Inhibitors of SARM1” (Disarm Therapeutics, Inc., priority 2018, dated 2026).

What follows are compounds tested against T1, SARM1 SAM-TIR (Homo sapiens, UniProt Q6SZW1) (assay: biochemical). Conditions: not given.
T1 construct: a fragment of the SARM1 molecule encompassing the SAM and TIR domains; made in house; host or cells: NRK1-HEK293T cells, transiently transfected; the cleared, unpurified lysate was used as the enzyme
T1 sequence (Q6SZW1 409-724 limits assumed): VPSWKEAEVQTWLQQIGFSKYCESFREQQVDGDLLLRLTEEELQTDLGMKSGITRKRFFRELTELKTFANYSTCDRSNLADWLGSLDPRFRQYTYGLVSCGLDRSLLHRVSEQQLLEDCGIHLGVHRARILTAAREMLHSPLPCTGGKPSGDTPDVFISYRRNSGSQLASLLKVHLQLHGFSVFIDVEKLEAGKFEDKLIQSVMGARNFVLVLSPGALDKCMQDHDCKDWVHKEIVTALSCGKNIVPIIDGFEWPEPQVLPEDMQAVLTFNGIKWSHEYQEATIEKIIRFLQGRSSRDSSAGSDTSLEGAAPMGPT

`O=C(c1c(Nc2ccccc2C(F)(F)F)s[nH]c1=O)N1CCCC1` [Example 110] was tested, and the IC50 was 1000 to 5000 nM.

Same assay, conditions: SAM-TIR lysate 5 μg/mL, 2 h pre-incubation, 5 μM NAD+, RapidFire MS of NAD+ and ADPR; read-out: SARM1 IC50

First: N#Cc1c(O)nsc1Nc1cccc(C(F)(F)F)c1 [Example 12]
Second: N#Cc1c(O)nsc1Nc1ccccc1C(F)(F)F [Example 6]
The IC50 of the first is higher: 1000 to 5000 nM for the first, under 1000 nM for the second. The second is the more potent here.

`Cn1sc(Nc2ccccc2C(F)(F)F)c(C#N)c1=O` [Example 31] and `Cn1ccc(Cn2sc(Nc3ccccc3C(F)(F)F)c(C#N)c2=O)n1` [Example 56] cannot be ordered by IC50: under 1000 nM for the first, under 1000 nM for the second.

First: Cc1cc(C)n2c1C=C1C=CC(CCC(=O)NCCOCCOCCn3sc(Nc4ccccc4C(F)(F)F)c(C#N)c3=O)=[N+]1[B-]2(F)F [Example 177]
Second: Cc1cc(C)n2c1CC1C=CC(CCC(=O)NCCCCCn3sc(Nc4ccccc4C(F)(F)F)c(C#N)c3=O)=[N+]1[B-]2(F)F (centres unmarked) [Example 176]
The IC50 of the first is lower: under 1000 nM for the first, 1000 to 5000 nM for the second.

Compared with `COCCN(C)C(=N)c1c(Nc2cccc(Cl)c2Cl)s[nH]c1=O` [Example 139], `COCCn1sc(Nc2cccc(Cl)c2Cl)c(C#N)c1=O` [Example 58] is lower in IC50: 1000 to 5000 nM for the first, under 1000 nM for the second.

Compared with `COCCn1sc(Nc2c(Cl)cccc2Cl)c(C(N)=O)c1=O` [Example 118], `N#Cc1c(Nc2cccc(Cl)c2Cl)sn(CCO)c1=O` [Example 34] is lower in IC50: over 5000 nM for the first, under 1000 nM for the second.

`N#Cc1c(NC2CCCCC2)s[nH]c1=O` [Example 170] and `N#Cc1c(Nc2cccc(C3CCNCC3)c2C(F)(F)F)s[nH]c1=O` [Example 163] cannot be ordered by IC50: over 5000 nM for the first, over 5000 nM for the second.

Compared with `O=C(c1c(Nc2c(F)cccc2Cl)s[nH]c1=O)N1CCOCC1` [Example 149], `COc1cccc(C#N)c1Nc1sn(CC(C)(C)O)c(=O)c1C(=O)N1CCOCC1` [Example 154] is higher in IC50: 1000 to 5000 nM for the first, over 5000 nM for the second. The first is the more potent here.

First: COC(=O)c1c(Nc2ccccc2C(F)(F)F)s[nH]c1=O [Example 123]
Second: CN(C)C(=N)c1c(Nc2ccccc2C(F)(F)F)s[nH]c1=O [Example 138]
The IC50 of the first is higher: over 5000 nM for the first, 1000 to 5000 nM for the second. The second is the more potent here.

`Cc1ccc2c(Nc3sn(C)c(=O)c3C#N)cccc2n1` [Example 91] and `Cn1sc(Nc2cccc3ncccc23)c(C#N)c1=O` [Example 53] cannot be ordered by IC50: under 1000 nM for the first, under 1000 nM for the second.

`C[C@@H](c1ccccc1)n1sc(Nc2ccccc2C(F)(F)F)c(C(=N)N(C)C)c1=O` [Example 128] and `N#Cc1c(Nc2ccccc2C(F)(F)F)sn(Cc2ccccc2)c1=O` [Example 80] cannot be ordered by IC50: under 1000 nM for the first, under 1000 nM for the second.

`Cn1sc(Nc2c(Cl)ccc3c2cnn3C)c(C#N)c1=O` [Example 48] and `Cn1sc(Nc2c(Cl)ccc3ncccc23)c(C#N)c1=O` [Example 52] cannot be ordered by IC50: under 1000 nM for the first, under 1000 nM for the second.

`COCCn1sc(Nc2c(OC)cccc2C(F)(F)F)c(C#N)c1=O` [Example 57] and `COCCn1sc(Nc2ccccc2C(C)(C)C)c(C#N)c1=O` [Example 98] cannot be ordered by IC50: under 1000 nM for the first, under 1000 nM for the second.

First: NC(=O)c1c(O)nsc1Nc1ccccc1OC(F)(F)F [Example 21]
Second: N#Cc1c(O)nsc1Nc1ccccc1OC(F)(F)F [Example 15]
The IC50 of the first is higher: 1000 to 5000 nM for the first, under 1000 nM for the second. The second is the more potent here.

First: N#Cc1c(O)nsc1Nc1cccc2ccccc12 [Example 26]
Second: N#Cc1c(O)nsc1Nc1cccc2ncccc12 [Example 27]
The IC50 of the first is lower: under 1000 nM for the first, 1000 to 5000 nM for the second.

First: N#Cc1c(O)nsc1Nc1ccccc1Cl [Example 2]
Second: Cc1ccccc1Nc1snc(O)c1C#N [Example 7]
The IC50 of the first is lower: under 1000 nM for the first, 1000 to 5000 nM for the second. The first is the more potent here.

Compared with `O=C(c1c(Nc2ccccc2C(F)(F)F)s[nH]c1=O)N1CC2CCC1CC2` [Example 174], `N#Cc1c(Nc2cccc(Br)c2C(F)(F)F)s[nH]c1=O` [Example 49] is lower in IC50: over 5000 nM for the first, under 1000 nM for the second.

`CN(C)C(=N)c1c(Nc2ccccc2Cl)sn(C)c1=O` [Example 125] and `C[C@@H](c1ccccc1)n1sc(Nc2cccc(Cl)c2Cl)c(C#N)c1=O` [Example 54] cannot be ordered by IC50: under 1000 nM for the first, under 1000 nM for the second.

`Cc1ccc(Nc2snc(O)c2C#N)cc1` [Example 3] and `N#Cc1c(O)nsc1Nc1ccccc1` [Example 1] fall in the same range of IC50: 1000 to 5000 nM for the first, 1000 to 5000 nM for the second.

`CS(=O)(=O)c1ccccc1Nc1snc(O)c1C#N` [Example 25] and `N#Cc1c(O)nsc1Nc1cccc(Cl)c1Cl` [Example 17] cannot be ordered by IC50: under 1000 nM for the first, under 1000 nM for the second.

`C#CCOCCOCCOCCn1sc(Nc2ccccc2C(F)(F)F)c(C#N)c1=O` [Example 180] and `COc1cccc(C)c1Nc1sn(C)c(=O)c1C#N` [Example 93] cannot be ordered by IC50: under 1000 nM for the first, under 1000 nM for the second.

`Cn1sc(Nc2c(Cl)ccc3c2CCCN3)c(C#N)c1=O` [Example 77] and `N#Cc1c(O)nsc1Nc1cc(Cl)ccc1Cl` [Example 19] cannot be ordered by IC50: under 1000 nM for the first, under 1000 nM for the second.

First: Cc1cccc(C)c1Nc1snc(O)c1C#N [Example 22]
Second: N#Cc1c(O)nsc1Nc1ccc(Cl)cc1Cl [Example 9]
The IC50 of the first is higher: 1000 to 5000 nM for the first, under 1000 nM for the second.

Each compound was assayed on mouse dorsal root ganglion (DRG) drop culture (assay: Axon degeneration assay in mouse DRG drop culture). Conditions: protection of axon fragmentation, axonal transection or chemotoxic stimuli.
Type: cell-based
Method: This Example illustrates an in vitro axon degeneration assay used to characterize compounds of Formula I or Formula II. This assay is used to test the efficacy of the compounds of Formula I or Formula II to prevent axonal degeneration in a mouse dorsal root ganglion (DRG) drop culture.
Mouse DRG Drop culture: Mouse dorsal root ganglion neurons (DRGs) were dissected out of E12.5 CD1 mice (50 ganglion per embryo) and incubated with 0.5% Trypsin solution containing 0.02% EDTA (Gibco) at 37° C. for 15 min. The cells were then triturated by gentle pipetting and washed 3 times with DRG growth medium (Neurobasal medium (Gibco) containing 2% B27 (Invitrogen), 100 ng/ml 2.5S NGF (Harland Bioproducts), […] 5-fluoro-2′deoxyuridine (Sigma), penicillin, and streptomycin). Cells were suspended in the DRG growth medium. DRG drop cultures were created by spotting 5000 cells/well into the center of each well of a 96-well tissue culture plate coated with poly-D-Lysine (0.1 mg/ml; Sigma) and laminin ([…]; Invitrogen). Cells were allowed to adhere to the plates in a humidified tissue culture incubator (5% CO2) for 15 min and then DRG growth medium was gently added ([…]).
Axon degeneration assay: Axonal degeneration was stimulated either by manual axonal transection using a scalpel blade, or chemotoxic stimuli. After an appropriate experimental time period, the DRG cultures were fixed in 1% PFA plus sucrose and kept in the fridge prior to imaging. Bright-field images of DRG axons and cell bodies were collected using the 20× water immersion lens of a Phenix automated confocal microscope (PerkinElmer) and quantitation of axonal performed using in-house developed scripts (Acapella, PerkinElmer).

First: N#Cc1c(O)nsc1Nc1cccc(C(F)(F)F)c1 [Example 12]
Second: N#Cc1c(O)nsc1Nc1ccccc1C(F)(F)F [Example 6]
The IC50 of the first is lower: under 10000 nM for the first, 10000 to 30000 nM for the second.

`Cn1sc(Nc2ccccc2C(F)(F)F)c(C#N)c1=O` [Example 31] and `Cc1ccccc1Nc1snc(O)c1C#N` [Example 7] fall in the same range of IC50: 10000 to 30000 nM for the first, 10000 to 30000 nM for the second.

For `N#Cc1c(O)nsc1Nc1cccc2ncccc12` [Example 27], the IC50 was under 10000 nM.
